Read-outs that look alike come from different tables or passages of the source.
Columns and labels:
[1] = snar bond
[2] = target: CFTR-mediated chloride transport (Homo sapiens, UniProt P13569); assay type: cell-based; details: enteroid cells incubated with test compound 18-24 hours, acute 10 μM forskolin and 300 nM Compound III; for Max. Activity: % of chloride transport with 3 μM Compound A, 3 μM Compound II and 300 nM acute Compound III triple combination control
Summary of the method: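 Membrane-potential fluorescence AUC over 15 min quantified CFTR chloride transport after acute forskolin (10 μM), IBMX (100 μM) and Compound III (300 nM) in chloride-free buffer. Human enteroid cells were pretreated with compound for 18–24 h; % Activity is relative to 3 μM Compound A + 3 μM Compound II + 300 nM Compound III.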

Chain of CFTR-mediated chloride transport (P13569 whole entry, looked up): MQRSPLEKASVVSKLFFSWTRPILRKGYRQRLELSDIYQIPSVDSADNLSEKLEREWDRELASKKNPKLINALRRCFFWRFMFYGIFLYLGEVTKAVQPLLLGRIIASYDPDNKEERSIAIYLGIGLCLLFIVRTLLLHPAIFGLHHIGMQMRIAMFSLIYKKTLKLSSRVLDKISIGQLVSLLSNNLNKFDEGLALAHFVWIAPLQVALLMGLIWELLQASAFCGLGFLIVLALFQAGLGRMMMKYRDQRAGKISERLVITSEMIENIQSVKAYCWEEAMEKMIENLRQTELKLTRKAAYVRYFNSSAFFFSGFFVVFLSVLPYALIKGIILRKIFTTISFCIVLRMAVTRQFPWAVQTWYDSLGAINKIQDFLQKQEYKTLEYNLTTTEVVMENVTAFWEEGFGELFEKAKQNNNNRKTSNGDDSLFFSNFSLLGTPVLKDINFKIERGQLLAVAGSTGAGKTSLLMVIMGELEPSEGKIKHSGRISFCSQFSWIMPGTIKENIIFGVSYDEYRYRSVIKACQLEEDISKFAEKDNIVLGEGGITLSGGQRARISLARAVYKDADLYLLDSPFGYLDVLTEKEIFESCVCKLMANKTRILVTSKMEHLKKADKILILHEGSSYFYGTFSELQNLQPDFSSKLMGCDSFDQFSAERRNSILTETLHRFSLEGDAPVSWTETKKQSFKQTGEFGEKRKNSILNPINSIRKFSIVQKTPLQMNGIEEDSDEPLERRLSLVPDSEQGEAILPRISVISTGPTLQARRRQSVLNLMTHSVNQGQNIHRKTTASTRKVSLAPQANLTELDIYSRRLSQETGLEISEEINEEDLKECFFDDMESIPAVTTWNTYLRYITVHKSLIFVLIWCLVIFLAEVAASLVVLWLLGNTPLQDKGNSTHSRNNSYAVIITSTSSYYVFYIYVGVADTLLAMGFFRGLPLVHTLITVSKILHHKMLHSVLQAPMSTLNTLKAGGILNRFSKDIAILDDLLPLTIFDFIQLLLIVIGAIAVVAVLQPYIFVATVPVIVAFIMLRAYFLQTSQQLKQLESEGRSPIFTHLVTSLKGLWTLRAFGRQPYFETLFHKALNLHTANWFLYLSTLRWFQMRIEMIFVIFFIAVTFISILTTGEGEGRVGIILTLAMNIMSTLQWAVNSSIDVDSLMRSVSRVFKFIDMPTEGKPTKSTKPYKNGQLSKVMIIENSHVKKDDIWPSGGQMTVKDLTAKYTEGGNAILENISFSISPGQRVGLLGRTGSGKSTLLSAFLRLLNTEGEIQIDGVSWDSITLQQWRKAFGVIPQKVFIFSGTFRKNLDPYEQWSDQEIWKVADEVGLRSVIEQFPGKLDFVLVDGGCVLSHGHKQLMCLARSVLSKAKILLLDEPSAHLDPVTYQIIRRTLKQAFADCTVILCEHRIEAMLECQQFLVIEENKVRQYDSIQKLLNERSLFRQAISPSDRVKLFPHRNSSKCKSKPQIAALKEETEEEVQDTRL

Row | SMILES | EC50 [2] [nM] | Max. Activity [2] | also measured
1 | CC1(C)C[C@@H]2CCCNc3cccc(n3)S(=O)(=O)NC(=O)c3ccc(-n4ccc(OCC(O)CC5(C(F)(F)F)CC5)n4)nc3N1C2 (stereo partly drawn) [Compound 259, (14S)-8-(3-{2-hydroxy-3-[1-(trifluoromethyl)cyclopropyl]propoxy}-1H-pyrazol-1-yl)-12,12-dimethyl-2λ^6-thia-3,9,11,18,23-pentaazatetracyclo[17.3.1.111,14.05,10]tetracosa-1(22),5(10),6,8,19(23),20-hexaene-2,2,4-trione] | < 1000 | +++ (+++ is >60%) | ring closure, isolated yield ([1]; from CC(C)(C)OC(=O)N1C[C@@H](CCCNc2cccc(S(=O)(=O)NC(=O)c3ccc(-n4ccc(OCC(O)CC5(C(F)(F)F)CC5)n4)nc3Cl)n2)CC1(C)C, 15-membered ring, HCl/dioxane/DCM, then K2CO3/3A MS, DMSO, 28.6 mM, 155.0 °C, 2 steps): 42%
2 | CC1(C)CC2CCCCOc3ccc(cc3)S(=O)(=O)NC(=O)c3ccc(-n4ccc(OCCC5(C(F)(F)F)CC5)n4)nc3N1C2 (racemic) [Compound 89, 12,12-dimethyl-8-(3-{2-[1-(trifluoromethyl)cyclopropyl]ethoxy}-1H-pyrazol-1-yl)-19-oxa-2λ^6-thia-3,9,11-triazatetracyclo[18.2.2.111,14.05,10]pentacosa-1(22),5,7,9,20,23-hexaene-2,2,4-trione] | < 1000 | ++ (++ is 30-60%) | ring closure, isolated yield ([1]; from CC1(C)CC(CCCCOc2ccc(S(=O)(=O)NC(=O)c3ccc(-n4ccc(OCCC5(C(F)(F)F)CC5)n4)nc3Cl)cc2)CN1, 17-membered ring, K2CO3/CsF/3A MS, DMSO, 36.5 mM, 165.0 °C, 18.0 h): 21%
3 | CC1(C)CC2CCNc3cccc(n3)S(=O)(=O)NC(=O)c3ccc(-n4ccc(OCCC5(C(F)(F)F)CC5)n4)nc3N1C2 (stereo not drawn) [Compound 20, 7,7-dimethyl-11-(3-{2-[1-(trifluoromethyl)cyclopropyl]ethoxy}-1H-pyrazol-1-yl)-17λ^6-thia-2,8,10,16,22-pentaazatetracyclo[16.3.1.15,8.09,14]tricosa-1(21),9,11,13,18(22),19-hexaene-15,17,17-trione] | < 1000 | +++ (+++ is >60%) | ring closure, isolated yield ([1]; from CC1(C)CC(CCNc2cccc(S(=O)(=O)NC(=O)c3ccc(-n4ccc(OCCC5(C(F)(F)F)CC5)n4)nc3Cl)n2)CN1, 14-membered ring, K2CO3/CsF/3A MS, DMSO, 54.4 mM, 155.0 °C): 43%
4 | CC1(C)C2CCNc3cccc(n3)S(=O)(=O)NC(=O)c3ccc(-n4ccc(OCCC5(C(F)(F)F)CC5)n4)nc3N1CC2 (stereo not drawn) [Compound 236, 23,23-Dimethyl-11-(3-{2-[1-(trifluoromethyl)cyclopropyl]ethoxy}-1H-pyrazol-1-yl)-17λ^6-thia-2,8,10,16,22-pentaazatetracyclo[16.3.1.15,8.09,14]tricosa-1(22),9,11,13,18,20-hexaene-15,17,17-trione] | > 3000 | + (+ is <30%) | ring closure, isolated yield ([1]; from CC1(C)NCCC1CCNc1cccc(S(=O)(=O)NC(=O)c2ccc(-n3ccc(OCCC4(C(F)(F)F)CC4)n3)nc2Cl)n1, 14-membered ring, K2CO3/3A MS, DMSO, 25.1 mM, 180.0 °C, 18.0 h): 2%
5 | CC1(C)CC2CCCCc3ccc(cc3)S(=O)(=O)NC(=O)c3ccc(-n4ccc(OCCC5(C(F)(F)F)CC5)n4)nc3N1C2 (stereo not drawn) [Compound 52, 12,12-dimethyl-8-(3-{2-[1-(trifluoromethyl)cyclopropyl]ethoxy}-1H-pyrazol-1-yl)-2λ^6-thia-3,9,11-triazatetracyclo[17.2.2.111,14.05,10]tetracosa-1(21),5,7,9,19,22-hexaene-2,2,4-trione] | < 1000 | ++ (++ is 30-60%) | ring closure, isolated yield ([1]; from CC1(C)CC(CCCCc2ccc(S(=O)(=O)NC(=O)c3ccc(-n4ccc(OCCC5(C(F)(F)F)CC5)n4)nc3Cl)cc2)CN1, 16-membered ring, K2CO3/CsF/3A MS, DMSO, 37.4 mM, 155.0 °C): 26%
6 | [2H]C([2H])(COc1ccn(-c2ccc3c(n2)N2C[C@@H](CCCNc4cccc(n4)S(=O)(=O)NC3=O)CC2(C)C)n1)C1C2(CC2)C12CC2 [Compound 252, (14S)-8-[3-(2-{dispiro[2.0.2.1]heptan-7-yl}-2,2-dideuterio-ethoxy)-1H-pyrazol-1-yl]-12,12-dimethyl-2λ^6-thia-3,9,11,18,23-pentaazatetracyclo[17.3.1.111,14.05,10]tetracosa-1(22),5,7,9,19(23),20-hexaene-2,2,4-trione] | < 1000 | +++ (+++ is >60%) | ring closure, isolated yield ([1]; from 2-chloro-6-[3-(2,2-dideuterio-2-dispiro[2.0.2.1]heptan-7-yl-ethoxy)pyrazol-1-yl]-N-[[3-[(3S)-5,5-dimethylpyrrolidin-3-yl]propylamino]-2-pyridyl]sulfonyl]pyridine-3-carboxamide (trifluoroacetate salt), 15-membered ring, K2CO3, NMP, 21.6 mM, 150.0 °C): 85%
7 | CC1(C)CC2CCCCCc3ccc(nc3)S(=O)(=O)NC(=O)c3ccc(-n4ccc(OCCC5(C(F)(F)F)CC5)n4)nc3N1C2 (stereo not drawn) [Compound 143, 12,12-dimethyl-8-(3-{2-[1-(trifluoromethyl)cyclopropyl]ethoxy}-1H-pyrazol-1-yl)-2λ^6-thia-3,9,11,22-tetraazatetracyclo[18.2.2.111,14.05,10]pentacosa-1(23),5,7,9,20(24),21-hexaene-2,2,4-trione] | 1000 to 3000 | + (+ is <30%) | ring closure, isolated yield ([1]; from CC1(C)CC(CCCCCc2ccc(S(=O)(=O)NC(=O)c3ccc(-n4ccc(OCCC5(C(F)(F)F)CC5)n4)nc3Cl)nc2)CN1, 17-membered ring, K2CO3/CsF, DMSO, 45.1 mM, 165.0 °C, 17.0 h): 11%
8 | CC1(C)CC2CCCCNc3cccc(n3)S(=O)(=O)NC(=O)c3ccc(-n4ccc(OCCC5(C(F)(F)F)CC5)n4)nc3N1C2 (racemic) [Compound 28, 12,12-dimethyl-8-(3-{2-[1-(trifluoromethyl)cyclopropyl]ethoxy}-1H-pyrazol-1-yl)-2λ^6-thia-3,9,11,19,24-pentaazatetracyclo[18.3.1.111,14.05,10]pentacosa-1(23),5,7,9,20(24),21-hexaene-2,2,4-trione] | < 1000 | ++ (++ is 30-60%) | ring closure, isolated yield ([1]; from CC1(C)CC(CCCCNc2cccc(S(=O)(=O)NC(=O)c3ccc(-n4ccc(OCCC5(C(F)(F)F)CC5)n4)nc3Cl)n2)CN1, 16-membered ring, K2CO3/CsF/3A MS, DMSO, 62.4 mM, 150.0 °C, 18.0 h, 2 steps): 60%
9 | CC1(C)C[C@@H]2CCCn3ccc(n3)S(=O)(=O)NC(=O)c3ccc(-n4ccc(OCCC5C6(CC6)C56CC6)n4)nc3N1C2 [Compound 187, (18S)-4-[3-(2-{Dispiro[2.0.2.1]heptan-7-yl}ethoxy)-1H-pyrazol-1-yl]-20,20-dimethyl-10λ^6-thia-1,3,9,14,22-pentaazatetracyclo[16.2.1.111,14.02,7]docosa-2,4,6,11(22),12-pentaene-8,10,10-trione] | < 1000 | +++ (+++ is >60%) | ring closure, isolated yield ([1]; from CC1(C)C[C@H](CCCn2ccc(S(=O)(=O)NC(=O)c3ccc(-n4ccc(OCCC5C6(CC6)C56CC6)n4)nc3Cl)n2)CN1, 14-membered ring, K2CO3/CsF/3A MS, DMSO, 26.2 mM, 155.0 °C, 18.0 h): 72%
10 | CN1CCCC2CCC(C)(C)N2c2nc(-n3ccc(OCCC4(C(F)(F)F)CC4)n3)ccc2C(=O)NS(=O)(=O)c2cccc1n2 (racemic) [Compound 9, 12,12,19-trimethyl-8-(3-{2-[1-(trifluoromethyl)cyclopropyl]ethoxy}-1H-pyrazol-1-yl)-2λ^6-thia-3,9,11,19,24-pentaazatetracyclo[18.3.1.05,10.011,15]tetracosa-1(23),5,7,9,20(24),21-hexaene-2,2,4-trione] | < 1000 | ++ (++ is 30-60%) | ring closure, isolated yield ([1]; from CN(CCCC1CCC(C)(C)N1)c1cccc(S(=O)(=O)NC(=O)c2ccc(-n3ccc(OCCC4(C(F)(F)F)CC4)n3)nc2Cl)n1, 14-membered ring, K2CO3/CsF/3A MS, DMSO, 72.3 mM, 150.0 °C, 25.0 h): 78%
11 | CC1(C)C[C@@H]2CCCNc3cccc(n3)S(=O)(=O)NC(=O)c3ccc(-n4ccc(OCCC(O)C5(C(F)(F)F)CC5)n4)nc3N1C2 (stereo partly drawn) [Compound 295, (14S)-8-(3-{3-hydroxy-3-[1-(trifluoromethyl)cyclopropyl]propoxy}-1H-pyrazol-1-yl)-12,12-dimethyl-2λ^6-thia-3,9,11,18,23-pentaazatetracyclo[17.3.1.111,14.05,10]tetracosa-1(22),5,7,9,19(23),20-hexaene-2,2,4-trione] | < 1000 | ++ (++ is 30-60%) | ring closure, isolated yield ([1]; from CC(C)(C)OC(=O)N1C[C@@H](CCCNc2cccc(S(=O)(=O)NC(=O)c3ccc(-n4ccc(OCCC(O[Si](C)(C)C(C)(C)C)C5(C(F)(F)F)CC5)n4)nc3Cl)n2)CC1(C)C, 15-membered ring, K2CO3/CsF/3A MS, DMSO, 41.7 mM, 150.0 °C, 2 steps): 46%
12 | Cc1cc2nn1CCCC1CN(c3nc(-n4ccc(OCCC5(C(F)(F)F)CC5)n4)ccc3C(=O)NS2(=O)=O)C(C)(C)C1 (stereo not drawn) [Compound 144, 13,20,20-Trimethyl-4-(3-{2-[1-(trifluoromethyl)cyclopropyl]ethoxy}-1H-pyrazol-1-yl)-10λ^6-thia-1,3,9,14,22-pentaazatetracyclo[16.2.1.111,14.02,7]docosa-2,4,6,11(22),12-pentaene-8,10,10-trione] | < 1000 | ++ (++ is 30-60%) | ring closure, isolated yield ([1]; from Cc1cc(S(=O)(=O)NC(=O)c2ccc(-n3ccc(OCCC4(C(F)(F)F)CC4)n3)nc2Cl)nn1CCCC1CN(C(=O)OC(C)(C)C)C(C)(C)C1, 14-membered ring, K2CO3/CsF/3A MS, DMSO, 44.1 mM, 155.0 °C, 2 steps): 38%

— patent US11866450B2, “Modulators of Cystic Fibrosis Transmembrane Conductance regulator, pharmaceutical compositions, methods of treatment, and process for making the modulators” (priority 2018, dated 2024)
